Data as given in ChEMBL document CHEMBL3045319, “Synthesis, antitumor activity, and structureactivity relationship of some 4H-pyrano[3,2-h]quinoline and 7H-pyrimido[4,5:6,5]pyrano[3,2-h]quinoline derivatives” (Med Chem Res, 2013).
Values after ≈ are worked out from the molar mass of the structure shown.

Tests used:
[1] = tested on: HepG2; assay: Cytotoxicity against Homo sapiens (human) HepG2 cells after 48 hr by MTT assay; type: functional, cell-based; details: Homo sapiens, HepG2, 48 h; read-out: IC50
[2] = tested on: HepG2; assay: Cytotoxicity against Homo sapiens (human) HepG2 cells assessed as cell viability at 12.5 ug/ml after 48 hr by MTT assay relative to control; type: functional; details: HepG2, 48 h, read-out: Activity
[3] = tested on: MCF7; assay: Cytotoxicity against Homo sapiens (human) MCF7 cells assessed as cell viability at 25 ug/ml after 48 hr by MTT assay relative to control; type: functional; details: MCF7, 48 h, read-out: Activity
[4] = tested on: MCF7; assay: Cytotoxicity against Homo sapiens (human) MCF7 cells after 48 hr by MTT assay; type: functional, cell-based; details: MCF7, 48 h
[5] = Cytotoxicity against Homo sapiens (human) HCT cells assessed as cell viability at 1.56 ug/ml after 48 hr by MTT assay relative to control; type: functional; details: read-out: Activity
[6] = Cytotoxicity against Homo sapiens (human) HCT cells assessed as cell viability at 3.125 ug/ml after 48 hr by MTT assay relative to control; type: functional; details: read-out: Activity
[7] = tested on: MCF7; assay: Cytotoxicity against Homo sapiens (human) MCF7 cells assessed as cell viability at 6.25 ug/ml after 48 hr by MTT assay relative to control; type: functional; details: MCF7, 48 h, read-out: Activity
[8] = tested on: HepG2; assay: Cytotoxicity against Homo sapiens (human) HepG2 cells assessed as cell viability at 25 ug/ml after 48 hr by MTT assay relative to control; type: functional; details: HepG2, 48 h, read-out: Activity
[9] = Cytotoxicity against Homo sapiens (human) HCT cells assessed as cell viability at 50 ug/ml after 48 hr by MTT assay relative to control; type: functional; details: read-out: Activity
[10] = tested on: HepG2; assay: Cytotoxicity against Homo sapiens (human) HepG2 cells assessed as cell viability at 6.25 ug/ml after 48 hr by MTT assay relative to control; type: functional; details: HepG2, 48 h, read-out: Activity
[11] = tested on: HepG2; assay: Cytotoxicity against Homo sapiens (human) HepG2 cells assessed as cell viability at 3.125 ug/ml after 48 hr by MTT assay relative to control; type: functional; details: HepG2, 48 h, read-out: Activity
[12] = Cytotoxicity against Homo sapiens (human) HCT cells assessed as cell viability at 12.5 ug/ml after 48 hr by MTT assay relative to control; type: functional; details: read-out: Activity
[13] = tested on: MCF7; assay: Cytotoxicity against Homo sapiens (human) MCF7 cells assessed as cell viability at 3.125 ug/ml after 48 hr by MTT assay relative to control; type: functional; details: MCF7, 48 h, read-out: Activity
[14] = tested on: MCF7; assay: Cytotoxicity against Homo sapiens (human) MCF7 cells assessed as cell viability at 12.5 ug/ml after 48 hr by MTT assay relative to control; type: functional; details: MCF7, 48 h, read-out: Activity
[15] = tested on: HepG2; assay: Cytotoxicity against Homo sapiens (human) HepG2 cells assessed as cell viability at 1.56 ug/ml after 48 hr by MTT assay relative to control; type: functional; details: HepG2, 48 h, read-out: Activity
[16] = Cytotoxicity against Homo sapiens (human) HCT cells after 48 hr by MTT assay; type: functional, cell-based
[17] = tested on: HepG2; assay: Cytotoxicity against Homo sapiens (human) HepG2 cells assessed as cell viability at 50 ug/ml after 48 hr by MTT assay relative to control; type: functional; details: HepG2, 48 h, read-out: Activity
[18] = Cytotoxicity against Homo sapiens (human) HCT cells assessed as cell viability at 25 ug/ml after 48 hr by MTT assay relative to control; type: functional; details: read-out: Activity
[19] = Cytotoxicity against Homo sapiens (human) HCT cells assessed as cell viability at 6.25 ug/ml after 48 hr by MTT assay relative to control; type: functional; details: read-out: Activity
[20] = tested on: MCF7; assay: Cytotoxicity against Homo sapiens (human) MCF7 cells assessed as cell viability at 1.56 ug/ml after 48 hr by MTT assay relative to control; type: functional; details: MCF7, 48 h, read-out: Activity
[21] = tested on: MCF7; assay: Cytotoxicity against Homo sapiens (human) MCF7 cells assessed as cell viability at 50 ug/ml after 48 hr by MTT assay relative to control; type: functional; details: MCF7, 48 h, read-out: Activity

SMILES | IC50 [1] [µg/mL] | viability at 12.5 µg/mL [2] [%] | viability at 25 µg/mL [3] [%] | IC50 [4] [µg/mL] | viability at 1.56 µg/mL [5] [%] | viability at 3.125 µg/mL [6] [%] | viability at 6.25 µg/mL [7] [%] | viability at 25 µg/mL [8] [%] | viability at 50 µg/mL [9] [%] | viability at 6.25 µg/mL [10] [%] | viability at 3.125 µg/mL [11] [%] | viability at 12.5 µg/mL [12] [%] | viability at 3.125 µg/mL [13] [%] | viability at 12.5 µg/mL [14] [%] | viability at 1.56 µg/mL [15] [%] | IC50 [16] [µg/mL] | viability at 50 µg/mL [17] [%] | viability at 25 µg/mL [18] [%] | viability at 6.25 µg/mL [19] [%] | viability at 1.56 µg/mL [20] [%] | other results
N#CC1=C(/N=C/c2ccccc2)Oc2c(ccc3cccnc23)C1c1ccc(Cl)cc1 (stereo not given) | 2.8 (≈ 6.64 µM) | 37.9 | 33.3 | 2.8 (≈ 6.64 µM) | 38.5 | 30.2 | 40.8 | 31.4 | 9.13 | 42.5 | 48.9 | 14.8 | 48.3 | 37.2 | 56.1 | 0.6 (≈ 1.42 µM) | 18.6 | 11.6 | 19.4 | 55 | viability at 50 µg/mL [21]: 26.5%
CC(=O)NC1=C(C#N)C(c2ccc(Cl)cc2)c2ccc3ccc(C)nc3c2O1 (stereo not given) | 17.8 (≈ 45.7 µM) | 60.2 | 54 | 38.6 (≈ 99 µM) | 96.4 | 85.2 | 76.8 | 35.9 | 22 | 78.6 | 89.7 | 53.3 | 86.5 | 68.7 | 100 | 14.6 (≈ 37.5 µM) | 23.8 | 42.5 | 77.5 | 96.3 | viability at 50 µg/mL [21]: 46.2%
CC(=O)NC1=C(C#N)C(c2ccc(Br)cc2)c2ccc3ccc(C)nc3c2O1 (stereo not given) | 26.5 (≈ 61 µM) | 68.6 | 32.1 | 13.5 (≈ 31.1 µM) | 99.8 | 95.1 | 65.8 | 51.2 | 22.5 | 81.6 | 90.7 | 71.8 | 79.9 | 51.2 | 98.8 | 21.3 (≈ 49 µM) | 32.6 | 44.5 | 86.8 | 94.8 | viability at 50 µg/mL [21]: 23.4%
Nc1ncnc2c1C(c1ccc(Cl)cc1)c1ccc3cccnc3c1O2 (stereo not given) | > 50 | 73.3 | 68.8 | 44.6 (≈ 124 µM) | 83.1 | 78.6 | 81.2 | 67.6 | 26.4 | 83.3 | 90.4 | 62.1 | 94.5 | 75.8 | 94.4 | 19.2 (≈ 53.2 µM) | 64.3 | 42 | 74.6 | 100 | viability at 50 µg/mL [21]: 45.4%
Cc1ccc2ccc3c(c2n1)Oc1ncnc(N)c1C3c1ccc(Cl)cc1 (stereo not given) | 6.3 (≈ 16.8 µM) | 43.7 | 81.7 | > 50 | 100 | 98.8 | 94.5 | 37 | 41.6 | 50.8 | 60.2 | 78.9 | 97.3 | 89.2 | 68.3 | 26.4 (≈ 70.4 µM) | 28.3 | 51.1 | 90.5 | 100 | viability at 50 µg/mL [21]: 70.2%
